Patent US7655465B2, “Methods for ex vivo propagation of somatic hair follicle stem cells” (Massachusetts Institute of Technology, priority 2004, dated 2010)

Assays:
[1] = test system: hair follicle epithelial cell cultures; experiment: Limiting dilution cloning of hair follicle epithelial cells with and without purine supplementation; assay type: cell-based, mouse; details: for Cell clone efficiency, Cloning Condition Purine-supplemented (positive wells/total wells) / Cell clone efficiency, Cloning Condition Purine-free (positive wells/total wells): limiting dilution in 96 well plates; for Cell clone efficiency, Cloning Condition Purine-supplemented (positive wells/total wells): cloned in the presence of the purine used for initial outgrowth (400 uM); for Cell clone efficiency, Cloning Condition Purine-free (positive wells/total wells): cultures grown out with 400 uM purine, cloned without purine
Text: After outgrowth of the follicle epithelial cells, cultures were trypsinized to harvest cells for secondary culture. […] In this manner, purine metabolite-dependent clonal expansion was verified. […] Seventeen Xn-derived clones were transferred to 24-well plates, and 15 survived expansion to full scale cultures for cryo-preservation.

[2] = test system: mouse whisker follicle epithelial cells; experiment: Outgrowth and cell counts of purine-supplemented mouse whisker hair follicle cultures; assay type: cell-based; details: 400 uM purine
Text: Intact mouse whisker hair follicles were dissected from the skin under sterile conditions. The hair shaft was resected at its point of exit from the follicle. The intact follicle was then digested with trypsin, repeatedly washed, and filtered with a nylon mesh to remove external cells that adhere to the follicle capsule. The follicle was then opened with a single longitudinal incision and place in culture medium supplemented with 10% dialyzed fetal bovine serum, epidermal growth factor, and one of three different purine nucleoside metabolites (Hypoxyanthine, xanthosine, or xanthine) each supplemented to 400 uM.
Confluent primary cultures were transferred into to 25-cm^2 flasks. Seven days after this transfer, cell counts were performed before transferring cultures to 75-cm^2 flasks.

[3] = test system: adult stem cell-enriched populations from skeletal muscle, pancreas or small intestinal epithelium of XPRT-transgenic mice; experiment: Proliferation of adult stem cell-enriched populations explanted from XPRT-transgenic mice in xanthine-supplemented medium; assay type: cell-based, mouse; details: cells explanted from XPRT-transgenic mice
Text: We have generated transgenic mice ubiquitously expressing the xanthine phosphoribosyltransferase (XPRT) gene. We used the gene encoding for XPRT from the protozoan Leismania donovani. The XPRT enzyme can convert Xanthine into xanthosine monophosphate, the critical precursor for cellular guanine nucleotides. This enzyme has no mammalian counterpart and its substrate can enter the cell via ubiquitously expressed nucleobase transporters. Therefore, we can control the kinetics of adult stem cells expressing XPRT by supplementing with or depriving the culture medium of xanthine. In the presence of xanthine, XPRT-expressing cells increase their cellular level of guanine nucleotides independently of their normal endogenous pathway involving the conversion of inosine monophosphate to xanthosine monophosphate by the enzyme inosine monophosphate dehydrogenase.
We have generated transgenic mice ubiquitously expressing the XPRT gene under the control of the chicken β-actin/CMV enhancer. […] We have also shown that the culture of pancreatic cells from one of the transgenic lines gives rise to clusters of small cells with large nuclei. This feature is typical of ductal cells, from which a subset is believed to correspond to the pancreatic adult stem cells. […]

Structure (SMILES) | Cell clone efficiency, Cloning Condition Purine-supplemented (positive wells/total wells) [1] | Cell clone efficiency, Cloning Condition Purine-free (positive wells/total wells) [1] | Promotion of enhanced growth of mouse whisker follicle epithelial cells (comparison of purines) [2] | Order of reaching confluency of primary cultures ([2]; three hair follicles in one well of a 24-well plate) | Yield of cell clones and dependence on the purine ([1]; limiting dilution cloning, summary of Table 1) | Proliferation in xanthine-supplemented culture medium [3]
O=c1[nH]cnc2nc[nH]c12 [Hx, hypoxanthine] | 6/480 | 0/96 |  |  |  | 
O=c1[nH]c(=O)c2[nH]cnc2[nH]1 [Xn, xanthine] | 50/480 | 4/96 | worked the best | reached confluency first | significant number of cell clones with a marked dependence on Xn | enhanced proliferation
O=c1[nH]c(=O)c2ncn([C@@H]3O[C@H](CO)[C@@H](O)[C@H]3O)c2[nH]1 [Xs, xanthosine] | 1/480 | 0/96 |  |  |  | 
